# Test results from patent US11708348B2, “Protease inhibitors for treatment of coronavirus infections” (The Scripps Research Institute, priority 2021, dated 2023).
# Test system: SARS-CoV-2 strain USA-WA1/2020
# Assay: microbe, parasite or virus in culture
# Assay type: cell-based
# Conditions: Severe acute respiratory syndrome coronavirus 2, HeLa-ACE2, 24 h, HeLa-ACE2 cells, SARS-CoV-2 infection, 24 h; cells given as a bound; read-out: EC50, uM (Hela)
row,Structure (SMILES),EC50 [µM]
1,"CC(C)C[C@H](NC(=O)OC1CCCC1)C(=O)N[C@@H](C[C@@H]1CCNC1=O)C(=O)COc1c(F)c(F)cc(F)c1F [Compound 21, cyclopentyl ((S)-4-methyl-1-oxo-1-(((S)-3-oxo-1-((S)-2-oxopyrrolidin-3-yl)-4-(2,3,5,6-tetrafluorophenoxy)butan-2-yl)amino)pentan-2-yl)carbamate]",> 1
2,"CC(C)C[C@H](CC(=O)NCc1c(F)cccc1F)C(=O)N[C@@H](C[C@@H]1CCNC1=O)C(=O)COc1c(F)c(F)cc(F)c1F [Compound 55, (R)-N4-(2,6-difluorobenzyl)-2-isobutyl-N1-((S)-3-oxo-1-((S)-2-oxopyrrolidin-3-yl)-4-(2,3,5,6-tetrafluorophenoxy)butan-2-yl)succinamide]",> 1

# Same assay, conditions: Severe acute respiratory syndrome coronavirus 2, HeLa-ACE2, 24 h, HeLa-ACE2 cells, SARS-CoV-2 infection, 24 h; class symbols; read-out: EC50, uM (Hela)
row,Structure (SMILES),EC50 [µM]
1,"CC(C)C[C@H](NC(=O)C(=O)NC(C)(C)C(F)(F)F)C(=O)N[C@@H](C[C@@H]1CCNC1=O)C(=O)COC(F)(F)F [Compound 211, N1-((S)-4-methyl-1-oxo-1-(((S)-3-oxo-1-((S)-2-oxopyrrolidin-3-yl)-4-(trifluoromethoxy)butan-2-yl)amino)pentan-2-yl)-N2-(1,1,1-trifluoro-2-methylpropan-2-yl)oxalamide]",< 0.05
2,"Cc1cccc(NC(=O)C(=O)N[C@@H](CC(C)C)C(=O)N[C@@H](C[C@@H]2CCNC2=O)C(=O)COc2c(F)c(F)cc(F)c2F)c1C [Compound 65, N1-(2,3-dimethylphenyl)-N2-((S)-4-methyl-1-oxo-1-(((S)-3-oxo-1-((S)-2-oxopyrrolidin-3-yl)-4-(2,3,5,6-tetrafluorophenoxy)butan-2-yl)amino)pentan-2-yl)oxalamide]",< 0.05
3,"CC(C)C[C@H](NC(=O)c1csc(C(F)(F)F)n1)C(=O)N[C@@H](CC1CCNC1=O)C(=O)COC(F)(F)F (stereo partly drawn) [Compound 277, N-((2S)-4-methyl-1-oxo-1-(((2S)-3-oxo-1-(2-oxopyrrolidin-3-yl)-4-(trifluoromethoxy)butan-2-yl)amino)pentan-2-yl)-2-(trifluoromethyl)-thiazole-4-carboxamide]",< 0.05
4,"O=C(Nc1ccccc1F)C(=O)N[C@@H](CC1CCNC1=O)C(=O)N[C@@H](C[C@@H]1CCNC1=O)C(=O)COC(F)(F)F (stereo partly drawn) [Compound 218, N1-(2-fluorophenyl)-N2-((2S)-1-oxo-1-(((S)-3-oxo-1-((S)-2-oxopyrrolidin-3-yl)-4-(trifluoromethoxy)butan-2-yl)amino)-3-(2-oxopyrrolidin-3-yl)propan-2-yl)oxalamide]",0.5 to 1
5,"O=C(N[C@@H](CC1CC1)C(=O)N[C@@H](C[C@@H]1CCNC1=O)C(=O)COC(F)(F)F)c1nnc(-c2ccc(F)cc2)o1 [Compound 184, N-((S)-3-cyclopropyl-1-oxo-1-(((S)-3-oxo-1-((S)-2-oxopyrrolidin-3-yl)-4-(trifluoromethoxy)butan-2-yl)amino)propan-2-yl)-5-(4-fluorophenyl)-1,3,4-oxadiazole-2-carboxamide]",0.05 to 0.2
6,"CC(C)C[C@H](NC(=O)OCc1cccc(Cl)c1)C(=O)N[C@@H](C[C@@H]1CCNC1=O)C(=O)COc1c(F)c(F)cc(F)c1F [Compound 22, 3-chlorobenzyl ((S)-4-methyl-1-oxo-1-(((S)-3-oxo-1-((S)-2-oxopyrrolidin-3-yl)-4-(2,3,5,6-tetrafluorophenoxy)butan-2-yl)amino)pentan-2-yl)carbamate]",0.2 to 0.5
7,"CC(C)C[C@H](NC(=O)C(=O)Nc1cccc(F)c1)C(=O)N[C@@H](C[C@@H]1CCNC1=O)C(=O)COc1c(F)c(F)cc(F)c1F [Compound 43, N1-(3-fluorophenyl)-N2-((S)-4-methyl-1-oxo-1-(((S)-3-oxo-1-((S)-2-oxopyrrolidin-3-yl)-4-(2,3,5,6-tetrafluorophenoxy)butan-2-yl)amino)pentan-2-yl)oxalamide]",0.05 to 0.2
8,"CC(C)C[C@H](NC(=O)OCc1cccc(Cl)c1)C(=O)N[C@@H](C[C@@H]1CCNC1=O)C(=O)COC(F)(F)F [Compound 199, 3-chlorobenzyl ((S)-4-methyl-1-oxo-1-(((S)-3-oxo-1-((S)-2-oxopyrrolidin-3-yl)-4-(trifluoromethoxy)butan-2-yl)amino)pentan-2-yl)carbamate]",< 0.05
9,"CC1(NC(=O)C(=O)N[C@@H](Cc2ccc(F)cc2)C(=O)N[C@@H](C[C@@H]2CCNC2=O)C(=O)COC(F)(F)F)CC1 [Compound 250, N1-((S)-3-(4-fluorophenyl)-1-oxo-1-(((S)-3-oxo-1-((S)-2-oxopyrrolidin-3-yl)-4-(trifluoromethoxy)butan-2-yl)amino)propan-2-yl)-N2-(1-methylcyclopropyl)-oxalamide]",< 0.05

# Same assay, conditions: Severe acute respiratory syndrome coronavirus 2, HeLa-ACE2, 24 h, HeLa-ACE2 cells, SARS-CoV-2 infection, 24 h; given as a bound, not a class symbol; read-out: EC50, uM (Hela)
row,Structure (SMILES),EC50 [µM]
1,"CC(C)(C)[C@H](NC(=O)NC1CC1)C(=O)N1C[C@H]2[C@@H]([C@H]1C(=O)N[C@@H](C[C@@H]1CCNC1=O)C(=O)COC(F)(F)F)C2(C)C [Compound 634, (1R,2S,5S)-3-((S)-2-(3-cyclopropylureido)-3,3-dimethylbutanoyl)-6,6-dimethyl-N-((S)-3-oxo-1-((S)-2-oxopyrrolidin-3-yl)-4-(trifluoromethoxy)butan-2-yl)-3-azabicyclo[3.1.0]hexane-2-carboxamide]",> 1

# Same assay, conditions: Severe acute respiratory syndrome coronavirus 2, HeLa-ACE2, 24 h, HeLa-ACE2 cells, SARS-CoV-2 infection, 24 h; read-out: EC50, uM (Hela)
row,Structure (SMILES),EC50 [µM]
1,"O=C1NCC[C@H]1C[C@H](NC(=O)[C@@H]1CC2(CC2)CN1C(=O)c1cc(C(F)F)on1)C(=O)COC(F)(F)F [Compound 572, (S)-5-(5-(difluoromethyl)-isoxazole-3-carbonyl)-N-((S)-3-oxo-1-((S)-2-oxopyrrolidin-3-yl)-4-(trifluoromethoxy)butan-2-yl)-5-azaspiro[2.4]-heptane-6-carboxamide]",< 0.05
2,"CC(C)(C)[C@H](NC(=O)OC1CC1)C(=O)N1C[C@H]2[C@@H]([C@H]1C(=O)N[C@@H](C[C@@H]1CCNC1=O)C(=O)COC(F)(F)F)C2(C)C [Compound 447, cyclopropyl ((S)-1-((1R,2S,5S)-6,6-dimethyl-2-(((S)-3-oxo-1-((S)-2-oxopyrrolidin-3-yl)-4-(trifluoromethoxy)butan-2-yl)carbamoyl)-3-azabicyclo[3.1.0]-hexan-3-yl)-3,3-dimethyl-1-oxobutan-2-yl)carbamate]",< 0.05
3,"COc1cccc2[nH]c(C(=O)N3CC4(CC4)C[C@H]3C(=O)N[C@@H](C[C@@H]3CCNC3=O)C(=O)COC(F)(F)F)cc12 [Compound 605, (S)-5-(4-methoxy-1H-indole-2-carbonyl)-N-((S)-3-oxo-1-((S)-2-oxopyrrolidin-3-yl)-4-(trifluorometh-oxy)butan-2-yl)-5-azaspiro[2.4]heptane-6-carboxamide]",< 0.05
4,"CN(C)S(=O)(=O)NCC(=O)N1CC2(CC2)C[C@H]1C(=O)N[C@@H](C[C@@H]1CCNC1=O)C(=O)COC(F)(F)F [Compound 692, (S)-5-((N,N-dimethylsulfamoyl)glycyl)-N-((S)-3-oxo-1-((S)-2-oxopyrrolidin-3-yl)-4-(trifluoromethoxy)butan-2-yl)-5-azaspiro[2.4]heptane-6-carboxamide]",0.2 to 0.5
5,"CC(C)(F)C(O)C(=O)N1CC2(CC2)C[C@H]1C(=O)N[C@@H](C[C@@H]1CCNC1=O)C(=O)COC(F)(F)F (stereo partly drawn) [Compound 762, (6S)-5-(3-fluoro-2-hydroxy-3-methylbutanoyl)-N-((S)-3-oxo-1-((S)-2-oxopyrrolidin-3-yl)-4-(trifluoromethoxy)butan-2-yl)-5-azaspiro[2.4]heptane-6-carboxamide]",0.05 to 0.2
6,"[2H]C([2H])([2H])CCCCC(=O)N1CC2(CC2)C[C@H]1C(=O)N[C@@H](C[C@@H]1CCNC1=O)C(=O)COC(F)(F)F [Compound 757, (S)-5-(hexanoyl-6,6,6-d3)-N-((S)-3-oxo-l-((S)-2-oxopyrrolidin-3-yl)-4-(trifluoromethoxy)butan-2-yl)-5-azaspiro[2.4]heptane-6-carboxamide]",< 0.05
7,"CC(C)C[C@@H](O)C(=O)N1C2CCC(CC2)[C@H]1C(=O)N[C@@H](C[C@@H]1CCNC1=O)C(=O)COC(F)(F)F [Compound 642, (S)-2-((R)-2-hydroxy-4-methylpentanoyl)-N-((S)-3-oxo-1-((S)-2-oxopyrrolidin-3-yl)-4-(trifluoromethoxy)butan-2-yl)-2-azabicyclo[2.2.2]octane-3-carboxamide]",< 0.05
8,"[2H]C([2H])([2H])CCCC(=O)N1CC2(CC2)C[C@H]1C(=O)N[C@@H](C[C@@H]1CCNC1=O)C(=O)COC(F)(F)F [Compound 763, (S)-N-((S)-3-oxo-1-((S)-2-oxopyrrolidin-3-yl)-4-(trifluoromethoxy)butan-2-yl)-5-(pentanoyl-5,5,5-d3)-5-azaspiro[2.4]heptane-6-carboxamide]",< 0.05
9,"CC1(C)[C@@H]2[C@@H](C(=O)N[C@H](C[C@@H]3CCNC3=O)C(=O)COC(F)(F)F)N(C(=O)c3cc(C(F)(F)F)no3)C[C@@H]21 [Compound 492, (1R,2S,5S)-6,6-dimethyl-N-((R)-3-oxo-1-((S)-2-oxopyrrolidin-3-yl)-4-(trifluoromethoxy)butan-2-yl)-3-(3-(trifluoromethyl)-isoxazole-5-carbonyl)-3-azabicyclo[3.1.0]-hexane-2-carboxamide]",0.05 to 0.2
10,"O=C(NC1CC(F)(F)C1)C(=O)N1C[C@@H]2CCC[C@@H]2[C@H]1C(=O)N[C@@H](C[C@@H]1CCNC1=O)C(=O)COC(F)(F)F [Compound 523, (1S,3aR,6aS)-2-(2-((3,3-difluorocyclobutyl)-amino)-2-oxoacetyl)-N-((S)-3-oxo-1-((S)-2-oxopyrrolidin-3-yl)-4-(trifluoromethoxy)butan-2-yl)octahydrocyclo-penta[c]pyrrole-1-carboxamide]",< 0.05
11,"O=C1NCC[C@H]1C[C@H](NC(=O)[C@@H]1CC2(CC2)CN1C(=O)C1(O)CCC(F)(F)CC1)C(=O)COC(F)(F)F [Compound 421, (S)-5-(4,4-difluoro-1-hydroxycyclohexane-1-carbonyl)-N—((S)-3-oxo-1-((S)-2-oxopyrrolidin-3-yl)-4-(trifluoromethoxy)butan-2-yl)-5-azaspiro[2.4]heptane-6-carboxamide]",< 0.05
